Laboratory results as given in US10870625B2, “Zwitterionic propargyl-linked antifolates useful for treating bacterial infections” (THE UNIVERSITY OF CONNECTICUT, priority 2016, dated 2020).
Converted amounts (≈) assume the structure as drawn.

What was measured:
[1] = biological target: S. aureus (Sa) DHFR (Staphylococcus aureus, UniProt P0A017); type: biochemical; details: Table 2
[2] = biological target: E. coli (Ec) DHFR (Escherichia coli (strain K12), UniProt P0ABQ4); test: E. coli DHFR enzyme inhibition (NADPH oxidation, 340 nm); type: biochemical; details: Table 2
[3] = biological target: human (Hu) DHFR (Homo sapiens (Human), UniProt P00374); test: Human DHFR enzyme inhibition (Example 5); type: biochemical; details: Table 2
[4] = tested on: S. aureus ATCC strain 43300; test: microbe, parasite or virus in culture; type: cell-based, Staphylococcus aureus
[5] = tested on: E. coli (ATCC 25922); test: E. coli MIC, microdilution broth assay; type: cell-based, Escherichia coli; details: Table 2; wild-type E. coli
Description: Minimum inhibitory concentrations were determined using E. coli (ATCC 25922) and the microdilution broth assay with an inoculum of […] CFU/mL in Isosensitest Broth (Oxoid).

[6] = tested on: E. coli NR698; type: cell-based, Escherichia coli; details: Table 2
[7] = tested on: Mtb; test: M. tuberculosis MIC, microtiter broth dilution (Table 6); type: cell-based, Mycobacterium tuberculosis
Description: (provided by Leonid Heifets).
Each isolate was tested in duplicate.

[8] = tested on: Sa(H30N) strain
[9] = biological target: MtbDHFR (Mycobacterium tuberculosis (strain ATCC 25618 / H37Rv), UniProt P9WNX1); details: data from Nixon et al., Chem. Biol. (2014); cited from earlier work

Row | Compound | IC50 [1] [nM] | IC50 [2] [nM] | IC50 [3] [nM] | MIC S. aureus 43300 [4] [µg/mL] | MIC Sa43300 ([4]; Table 12, wild-type strain) [µg/mL] | MIC E. coli 25922 [5] [µg/mL] | MIC E. coli NR698 [6] [µg/mL] | MIC Mtb [7] [µg/mL] | MIC Sa(H30N) [8] [µg/mL] | MIC ([7]; Mycobacterium tuberculosis) [µg/mL] | IC50 [9] [nM]
1 | CCc1nc(N)nc(N)c1C#CC(SC)c1cc(-c2ccc(C(=O)O)cc2)ccc1OC (centres unmarked) [Compound 29] | 37 | 177 | 266 | 0.625 (≈ 1.39 µM) | 0.0391 (≈ 0.0872 µM) | >20 | 0.0391 (≈ 0.0872 µM) | 0.5 (≈ 1.11 µM) | 0.1563 (≈ 0.348 µM) |  | 
2 | COc1cc(NCc2ccc3nc(N)nc(N)c3c2C)cc(OC)c1OC [Trimetrexate, trimetrexate, reference compound] |  |  |  |  |  |  |  |  |  | 4 (≈ 10.8 µM) | 17
